Results reported in BigSolDB 2.1.

Cl.Nc1ccccc1
solubility (mole fraction)
Settings | 288.15 K | 298.15 K | 308.15 K | 318.15 K | 328.15 K
in ethanol | 0.082 | 0.098 | 0.115 | 0.134 | 0.155
in methanol | 0.144 | 0.165 | 0.188 | 0.208 | 0.23
in n-propanol | 0.047 | 0.057 | 0.07 | 0.083 | 0.098
